For assay [1], the target named is T1, rat NaP2b (SLC34A2) (Rattus norvegicus, UniProt Q9JJ09).
T1 construct: host or cells: HEK293
T1 sequence (Q9JJ09 1-695): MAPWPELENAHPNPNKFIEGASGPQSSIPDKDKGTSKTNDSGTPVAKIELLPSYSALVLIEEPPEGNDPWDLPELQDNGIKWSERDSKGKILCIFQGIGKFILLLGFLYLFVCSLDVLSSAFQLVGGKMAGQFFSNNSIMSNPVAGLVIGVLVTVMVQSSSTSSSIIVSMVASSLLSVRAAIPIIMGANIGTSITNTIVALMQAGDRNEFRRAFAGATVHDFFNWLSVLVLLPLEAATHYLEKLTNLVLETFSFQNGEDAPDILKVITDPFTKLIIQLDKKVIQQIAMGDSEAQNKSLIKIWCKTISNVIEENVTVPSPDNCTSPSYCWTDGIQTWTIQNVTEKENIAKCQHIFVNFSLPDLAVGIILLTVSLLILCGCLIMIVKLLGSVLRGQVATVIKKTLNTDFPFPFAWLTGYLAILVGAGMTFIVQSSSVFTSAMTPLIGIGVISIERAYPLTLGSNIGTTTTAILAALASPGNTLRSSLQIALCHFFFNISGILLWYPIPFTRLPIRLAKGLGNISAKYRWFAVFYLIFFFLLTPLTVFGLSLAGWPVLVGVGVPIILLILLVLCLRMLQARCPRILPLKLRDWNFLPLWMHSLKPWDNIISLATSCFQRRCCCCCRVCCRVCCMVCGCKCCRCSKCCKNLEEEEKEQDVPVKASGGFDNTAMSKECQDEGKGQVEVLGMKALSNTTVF
Description: Inhibition of NaP2b-mediated Pi (33P) uptake in transfected HEK293 cells, rat NaP2b. In kind it is cell-based. Particulars: 33P Pi uptake, 0.1 mM phosphate, value given as pIC50 range. In a few lines: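 The cells transiently expressed NaP2b after Lipofectamine transfection. Each compound was run in duplicate over twelve concentrations, 0.1 nM–30 uM.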

Assay [2] concerns NaPi2b. Description: Competition with phosphate: Pi uptake assay repeated at 2.1 vs 0.1 mM phosphate. The assay is classed as cell-based. Particulars: potency at 2.1 vs 0.1 mM phosphate. An excerpt:
For example, a phosphate uptake assay can be performed and the IC50 values for a compound at different phosphate concentrations can be determined (e.g., “Enzyme kinetics”, I. Segel, 1975, John-Wiley & Sons, p. 123). IC50 values for non-competitive inhibitors will remain the same or similar with respect to the phosphate concentration, whereas IC50 values for competitive inhibitors will increase (i.e lose potency) as phosphate concentration increases.
To ascertain if an inhibitor was competitive for binding with phosphate, the procedure was repeated, but raising the concentration of the substrate in the assay mixture from 0.1 to 2.1 mM phosphate.

Assay [3] has as its target T2, human NaP2b (SLC34A2) (Homo sapiens, UniProt O95436).
T2 construct: host or cells: HEK293
T2 sequence (O95436 1-690): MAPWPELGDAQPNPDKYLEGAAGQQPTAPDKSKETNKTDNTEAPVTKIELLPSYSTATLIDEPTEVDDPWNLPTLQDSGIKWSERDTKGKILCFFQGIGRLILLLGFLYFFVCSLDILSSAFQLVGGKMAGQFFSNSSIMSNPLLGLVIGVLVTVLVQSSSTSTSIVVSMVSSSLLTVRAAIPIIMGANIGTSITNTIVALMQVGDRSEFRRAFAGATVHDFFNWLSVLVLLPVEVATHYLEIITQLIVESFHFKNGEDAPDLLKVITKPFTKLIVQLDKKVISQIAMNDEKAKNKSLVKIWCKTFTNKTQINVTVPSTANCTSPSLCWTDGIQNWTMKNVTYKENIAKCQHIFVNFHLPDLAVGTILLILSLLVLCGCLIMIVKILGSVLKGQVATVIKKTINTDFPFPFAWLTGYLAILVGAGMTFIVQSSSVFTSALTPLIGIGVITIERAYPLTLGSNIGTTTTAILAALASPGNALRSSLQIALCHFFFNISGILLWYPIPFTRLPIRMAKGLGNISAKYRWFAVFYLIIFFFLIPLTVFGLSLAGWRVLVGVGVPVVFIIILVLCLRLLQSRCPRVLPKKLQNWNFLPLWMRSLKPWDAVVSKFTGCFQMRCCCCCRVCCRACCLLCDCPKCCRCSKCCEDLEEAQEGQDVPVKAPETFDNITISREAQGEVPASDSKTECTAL
In words: Inhibition of NaP2b-mediated Pi (33P) uptake in transfected HEK293 cells, human NaP2b. Particulars: read-out: pIC50 range for human NaP2b (converted). In kind it is cell-based. A digest of the protocol: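 Uptake of 33P-phosphate (100 uM KH2PO4 carrier, sodium vs choline buffer, pH 7.4) measured after 3-30 min at room temperature, with test compound at twelve concentrations from 0.1 nM to 30 uM in duplicate. Cells were HEK293 transfected with mutated human NaP2b (Thr insertion after 37, N39D) and treated with a PiT-silencing agent. pIC50 values from scintillation counts.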

Assay [4] concerns the target T1, rat NaP2b (SLC34A2). In words: NaP2b-mediated Pi transport (33P uptake) in transfected HEK293 cells, rat NaP2b. In kind it is cell-based. Particulars: Structure (V) examples, Table 2; rat NaP2b, HEK293; read-out: pIC50 Range (converted). How it is done: HEK293 cells were obtained from the American Type Culture collection and propagated per their instructions. Expression clones for rat and human NaP2b (SLC34A2) were obtained from Open Biosystems (Catalog numbers MRN1768-9510282, and MHS1010-99823026, respectively). The sequence of the human protein was mutated to insert a threonine after residue 37, and to introduce a N39D mutation.
The rate of phosphate (Pi) uptake into HEK293 cells was measured using a modification of the method described by Mohrmann et al. (Mohrmann, I., Mohrmann, M., Biber, J., and Murer, H. (1986) Am. J. Phys. 250(3 Pt 1):G323-30.) Transfected HEK293 cells were treated with a pharmacological agent to minimize endogenous PiT-mediated phosphate transport activity, such that the only remaining sodium-dependent phosphate transport activity is that which was bestowed by introduction of the NaP2b genes.
(§1) Cells were seeded into 96-well plates at 25,000 cells/well and cultured overnight. Lipofectamine 2000 (Invitrogen) was used to introduce the NaP2b cDNA, and the cells were allowed to approach confluence during a second overnight incubation. […] Cells were then overlayed with either choline uptake buffer or sodium uptake buffer (14 mM Tris, 137 mM sodium chloride, 5.4 mM KCl, 2.8 mM CaCl2, 1.2 mM MgSO4, 100 uM KH2PO4, PiT-silencing agent, 1 mg/mL Bovine Serum Albumin, pH 7.4) containing 6-9 uCi/mL ^33P orthophosphoric acid (Perkin Elmer) and test compound. Each compound was tested at twelve concentrations ranging from 0.1 nM to 30 uM. Assays were run in duplicate.
After incubation for 3-30 minutes at room temperature, assay mixtures were removed, and the cells were washed twice with ice cold stop solution (137 mM sodium chloride, 14 mM Tris, pH 7.4). Cells were lysed by addition of 20 μL 0.1% Tween 80 followed by 100 μL scintillation fluid, and counted using a TopCount (Perkin Elmer).
pIC50 (the negative log of the IC50) values of the test compounds were calculated using GraphPad Prism.
HEK293 cells were obtained from the American Type Culture collection and propagated per their instructions. Expression clones for rat and mouse NaP2b (SLC34A2) cDNAs were obtained from Open Biosystems (Catalog numbers MRN1768-9510282 and MMM1013-98478398 respectively).
The rate of phosphate uptake into HEK293 cells was measured using a modification of the method described by Mohrmann et al. (Mohrmann, I., Mohrmann, M., Biber, J., and Murer, H. (1986) Am. J. Phys. 250(3 Pt 1):G323-30.) Transfected HEK293 cells were treated with a pharmacological agent to minimize endogenous PiT-mediated phosphate transport activity, such that the only remaining sodium-dependent phosphate transport activity is that which was bestowed by introduction of the NaP2b genes.
as §1, with “agent, 0.1% wt/v bovine serum albumin,” for “agent, 1 mg/mL Bovine Serum Albumin,”, “Each compounds” for “Each compound”
After incubation for 3-30 minutes at room temperature, assay mixtures were removed, and the cells were washed twice with ice cold stop solution (137 mM sodium chloride, 14 mM Tris, pH 7.4).

The test system of assay [5] is uptake of phosphate from the intestine. Description: In vivo assay: bolus phosphorus (phosphate) challenge. Also on record: species or system Sprague-Dawley rats. Particulars: Structure (V) examples, Table 4, rat, oral 30 mg/kg. How it is done:
By pretreating animals with a low phosphorus diet followed by the subsequent dosing of a phosphorus bolus, serum phosphorus levels were monitored after 30 minutes as a surrogate for intestinal phosphorus absorption. […] The in vivo bolus phosphorus challenge model used here mimics this model in rats.
Male, 7-week-old Sprague-Dawley rats (Charles-River laboratories international, Hollister, Calif.) were allowed to acclimatize for a minimum of 3 days before switching to a synthetic low-phosphorus diet (TD.85010, Harlan Teklad, Madison, Wis.) which contains 0.1% phosphorus and 0.6% calcium. At day 5, testing compounds or vehicle alone (as indicated) were orally administered at the indicated dose in a volume of 5 ml/kg, followed by a bolus gavage of monobasic sodium phosphate (1 mmol in 1 ml) 15 min after compound dosing. Serum was collected via retroorbital bleeding 30 min post phosphate bolus and phosphate levels were determined utilizing an ACE ALERA blood chemistry analyzer (Alfa Wassermann Diagnostic Technologies, West Caldwell, N.J.). […]
Male, 7-week-old Sprague-Dawley rats (Charles-River laboratories international, Hollister, Calif.) were allowed to acclimate for a minimum of 3 days before switching to a synthetic low-phosphorus diet (TD.85010, Harlan Teklad, Madison, Wis.) which contains 0.1% phosphorus and 0.6% calcium. At day 5, testing compounds or vehicle alone (as indicated) were orally administered at the indicated dose in a volume of 5 ml/kg, followed by a bolus gavage of monobasic sodium phosphate (1 mmol in 1 ml) 15 min after compound dosing. Serum was collected via retroorbital bleeding 30 min post phosphate bolus and phosphate levels were determined utilizing an ACE ALERA blood chemistry analyzer (Alfa Wassermann Diagnostic Technologies, West Caldwell, N.J.).
Serum was collected 30 minutes after gavage, and phosphate levels measured. […] The in vivo bolus phosphate challenge model used here mimics this model in rats.
Male, 7-week-old Sprague-Dawley rats (Charles-River laboratories international, Hollister, Calif.) were allowed to acclimatize for a minimum of 3 days before switching to a low-phosphorus diet (TD.85010, Harlan Teklad, Madison, Wis.) which contains 0.1% phosphorus and 0.6% calcium. At day 5, testing compounds or vehicle alone (as indicated) were orally administered at the indicated dose in a volume of 5 ml/kg, followed by a bolus gavage of monobasic sodium phosphate (1 mmol in 1 ml) 15 min after compound dosing. Serum was collected via retroorbital bleeding 30 min post phosphate bolus and serum phosphate levels were determined utilizing an ACE ALERA blood chemistry analyzer (Alfa Wassermann Diagnostic Technologies, West Caldwell, N.J.).
The representative data on effects of test compounds on serum phosphate levels are shown in Table 4 (data are expressed as mean±SD, with 6 animals per data point). The differences between groups were evaluated by one-way analysis of variance with Dunnett's post hoc tests.

In the case of `O=C(O)c1cccc(S(=O)(=O)Cc2cccc(C(=O)Nc3ccc(N4CCCCC4)cc3-c3cc(C(=O)NCc4cccc(C(F)(F)F)c4)ccn3)c2)c1` [Example 8.26, 3-((3-((4-(Piperidin-1-yl)-2-(4-((3-(trifluoromethyl)benzyl)carbamoyl)pyridin-2-yl)phenyl)carbamoyl)benzyl)sulfonyl)benzoic acid], the IC50 in assay [1] is 10 to 31.6 µM. Moreover, the “Competitive with respect to Pi?” value in assay [2] is reported as “No”.

Take `O=C(O)CCOCCOCCOCCNC(=O)c1cccc(SCc2cccc(C(=O)Nc3ccc(N4CCCCC4)cc3-c3cc(C(=O)NCc4cccc(C(F)(F)F)c4)ccn3)c2)c1` [Example 10.1, 1-oxo-1-(3-(3-(4-(piperidin-1-yl)-2-(4-(3-(trifluoromethyl)benzyl-carbamoyl)pyridin-2-yl)phenylcarbamoyl)benzylthio)phenyl)-5,8,11-trioxa-2-azatetradecan-14-oic acid]: the IC50 in assay [3] is less than 1 µM; in assay [1], 1 to 7.94 µM. Moreover, the “Competitive with respect to Pi?” value in assay [2] is “No”.

In assay [1], `O=C(O)Cc1cccc(SCc2cccc(C(=O)Nc3ccc(N4CCCCC4)cc3-c3cc(C(=O)NCc4cccc(C(F)(F)F)c4)ccn3)c2)c1` [Example 8.18] had an IC50 of less than 1 µM. Besides, the “Competitive with respect to Pi?” value in assay [2] is “No”.

For `O=C(Nc1ccc(N2CCCCC2)cc1C(=O)N/N=C/c1ccc(Cl)c(C(F)(F)F)c1)c1cccc(Cn2cnc(CCO)c2)c1` [Ex. 47, (E)-N-(2-(2-(4-chloro-3-(trifluoromethyl)benzylidene)hydrazinecarbonyl)-4-(piperidin-1-yl)phenyl)-3-((4-(2-hydroxyethyl)-1H-imidazol-1-yl)methyl)benzamide], the IC50 in assay [4] was 0.1 to 0.794 µM. The “% Decrease in serum [Pi]” value in assay [5] turned out to be 28%. For the same compound, the “Serum increase [Pi] mg/dL from baseline low PI state” value in assay [5] (mean ± SD, vehicle 5.0 ± 1.3) is 3.6 ± 1.1 mg/dL.
